The target in assay [1] is Heat shock protein HSP 90-beta (Homo sapiens) (UniProt P08238). Nature of the assay: Inhibition of HSP90-mediated proliferation of human SKBR3cells after 72 hrs by sulforhodamine B assay.
Assay [2] has the same target. Nature of the assay: Binding affinity to HSP90 in human SKBR3 cells after 24 hrs by fluorescence polarization assay. To be noted: SK-BR-3. In general terms: In fluorescence polarisation assays a small probe gives low polarisation when free and higher when bound to something large.
Assay [3] deals with RAC-alpha serine/threonine-protein kinase (Homo sapiens) (UniProt P31749). To be noted: NCI-H526, 50 uM.
RAC-alpha serine/threonine-protein kinase (Homo sapiens), sequence (P31749 whole entry): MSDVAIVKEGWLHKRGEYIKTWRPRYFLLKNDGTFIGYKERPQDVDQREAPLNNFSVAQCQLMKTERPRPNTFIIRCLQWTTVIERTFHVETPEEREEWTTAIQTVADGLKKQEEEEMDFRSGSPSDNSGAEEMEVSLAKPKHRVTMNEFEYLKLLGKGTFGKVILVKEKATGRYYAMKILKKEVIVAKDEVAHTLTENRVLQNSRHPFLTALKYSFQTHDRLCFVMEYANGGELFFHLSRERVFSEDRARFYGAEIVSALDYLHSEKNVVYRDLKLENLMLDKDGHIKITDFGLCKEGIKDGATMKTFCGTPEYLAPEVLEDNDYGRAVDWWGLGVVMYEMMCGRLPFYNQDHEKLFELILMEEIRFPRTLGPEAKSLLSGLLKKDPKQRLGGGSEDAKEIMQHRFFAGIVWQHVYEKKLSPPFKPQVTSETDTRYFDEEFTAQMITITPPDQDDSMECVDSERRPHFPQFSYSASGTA
Description: Inhibition of Akt-mediated antiapoptotic activity in human NCI-H526 cells assessed as reduction in BAD phosphorylation at 50 uM after 24 hrs by Western blot analysis

Activity calls are given as the source filed them. No cut-off for these calls is given here.

Heat shock protein HSP 90-beta (Homo sapiens), sequence (P08238 whole entry): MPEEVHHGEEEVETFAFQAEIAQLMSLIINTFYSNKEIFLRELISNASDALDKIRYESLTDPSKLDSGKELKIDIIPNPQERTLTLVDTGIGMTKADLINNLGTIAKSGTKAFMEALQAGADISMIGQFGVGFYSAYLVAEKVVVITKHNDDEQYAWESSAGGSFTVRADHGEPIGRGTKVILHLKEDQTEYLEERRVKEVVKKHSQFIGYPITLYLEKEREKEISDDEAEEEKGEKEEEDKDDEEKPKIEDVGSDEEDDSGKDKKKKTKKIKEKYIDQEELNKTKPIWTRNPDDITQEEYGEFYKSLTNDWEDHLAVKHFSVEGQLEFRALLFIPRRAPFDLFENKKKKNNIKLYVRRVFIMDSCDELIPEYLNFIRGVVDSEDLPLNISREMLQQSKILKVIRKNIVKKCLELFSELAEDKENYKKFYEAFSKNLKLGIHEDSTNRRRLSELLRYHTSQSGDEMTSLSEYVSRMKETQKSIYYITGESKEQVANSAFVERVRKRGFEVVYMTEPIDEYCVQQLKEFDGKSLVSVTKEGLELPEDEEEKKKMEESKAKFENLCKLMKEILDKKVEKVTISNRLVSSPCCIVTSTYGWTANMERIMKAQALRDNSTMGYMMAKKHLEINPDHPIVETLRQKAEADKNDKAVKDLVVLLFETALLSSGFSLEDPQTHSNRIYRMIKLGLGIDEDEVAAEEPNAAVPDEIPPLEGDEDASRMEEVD

As for `CC(C)NCCCn1c(Cc2cc3c(cc2I)OCO3)nc2c(N)nc(F)nc21`, the inhibition result in assay [1] was “Active”. Moreover, in assay [2], the outcome was Active.

With `O=c1[nH]c2ccccc2n1C1CCN(Cc2ccc(-c3nc4cc5[nH]cnc5cc4nc3-c3ccccc3)cc2)CC1`, in assay [3], the inhibition result is “Active”.
